Here are results for four compounds from ChEMBL document CHEMBL5291721, “A preclinical secondary pharmacology resource illuminates target-adverse drug reaction associations of marketed drugs” (Nat Commun, 2023).

In assay [1] the target is T1, Peroxisome proliferator-activated receptor alpha (Homo sapiens, UniProt Q07869).
T1 sequence (Q07869 whole entry): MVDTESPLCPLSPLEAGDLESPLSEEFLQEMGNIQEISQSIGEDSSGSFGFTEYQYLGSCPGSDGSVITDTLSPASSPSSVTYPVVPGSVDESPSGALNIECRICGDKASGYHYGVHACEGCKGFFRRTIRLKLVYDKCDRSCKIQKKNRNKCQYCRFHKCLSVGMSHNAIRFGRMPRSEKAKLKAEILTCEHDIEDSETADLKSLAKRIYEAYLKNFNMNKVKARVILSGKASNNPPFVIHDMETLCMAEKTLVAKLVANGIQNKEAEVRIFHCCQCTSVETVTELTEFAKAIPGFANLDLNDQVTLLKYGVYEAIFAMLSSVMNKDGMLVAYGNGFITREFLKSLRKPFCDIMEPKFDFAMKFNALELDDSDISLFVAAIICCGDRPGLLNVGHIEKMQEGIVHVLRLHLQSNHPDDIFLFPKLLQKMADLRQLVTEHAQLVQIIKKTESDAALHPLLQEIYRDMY
The class given is functional.

In assay [2] the target is 5-hydroxytryptamine receptor 2B (Homo sapiens, UniProt P41595).
5-hydroxytryptamine receptor 2B, sequence (P41595 whole entry): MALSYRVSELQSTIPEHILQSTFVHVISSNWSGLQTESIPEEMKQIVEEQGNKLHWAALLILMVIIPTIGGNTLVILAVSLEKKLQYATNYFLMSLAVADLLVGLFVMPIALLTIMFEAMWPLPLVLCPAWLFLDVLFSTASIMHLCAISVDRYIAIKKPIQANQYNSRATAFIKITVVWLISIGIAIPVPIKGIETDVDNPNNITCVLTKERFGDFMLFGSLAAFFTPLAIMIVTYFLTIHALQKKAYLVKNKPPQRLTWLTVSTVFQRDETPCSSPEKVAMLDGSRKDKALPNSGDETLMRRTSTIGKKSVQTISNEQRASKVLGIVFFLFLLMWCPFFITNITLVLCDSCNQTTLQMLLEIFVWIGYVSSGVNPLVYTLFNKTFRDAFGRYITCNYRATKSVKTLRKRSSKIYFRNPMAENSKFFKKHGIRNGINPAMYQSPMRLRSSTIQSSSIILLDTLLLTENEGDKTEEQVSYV
The target of assay [3] is T2, Type-1 angiotensin II receptor (Homo sapiens, UniProt P30556).
T2 sequence (P30556 whole entry): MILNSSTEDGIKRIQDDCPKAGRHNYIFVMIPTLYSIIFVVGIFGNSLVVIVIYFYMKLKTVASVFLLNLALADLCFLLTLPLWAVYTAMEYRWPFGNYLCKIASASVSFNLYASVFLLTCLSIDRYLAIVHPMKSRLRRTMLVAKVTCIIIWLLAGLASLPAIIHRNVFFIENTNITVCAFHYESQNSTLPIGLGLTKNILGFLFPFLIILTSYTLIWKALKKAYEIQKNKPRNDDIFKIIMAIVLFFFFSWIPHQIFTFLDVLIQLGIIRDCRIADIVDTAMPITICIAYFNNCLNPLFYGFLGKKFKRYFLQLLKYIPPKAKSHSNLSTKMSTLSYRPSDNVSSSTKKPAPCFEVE

The next assay deals with T3, Adenosine receptor A3 (Homo sapiens, UniProt P0DMS8).
T3 sequence (P0DMS8 whole entry): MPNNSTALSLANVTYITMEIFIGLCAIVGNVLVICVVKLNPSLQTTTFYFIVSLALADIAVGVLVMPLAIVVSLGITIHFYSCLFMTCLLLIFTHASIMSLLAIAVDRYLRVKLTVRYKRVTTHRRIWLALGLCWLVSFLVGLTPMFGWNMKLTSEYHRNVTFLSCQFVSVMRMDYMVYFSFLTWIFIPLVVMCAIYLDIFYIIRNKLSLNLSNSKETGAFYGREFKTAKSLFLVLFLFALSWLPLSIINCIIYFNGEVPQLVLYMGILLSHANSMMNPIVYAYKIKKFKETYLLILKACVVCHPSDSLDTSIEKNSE

The target of the next assay is T4, Thromboxane A2 receptor (Homo sapiens, UniProt P21731).
T4 sequence (P21731 whole entry): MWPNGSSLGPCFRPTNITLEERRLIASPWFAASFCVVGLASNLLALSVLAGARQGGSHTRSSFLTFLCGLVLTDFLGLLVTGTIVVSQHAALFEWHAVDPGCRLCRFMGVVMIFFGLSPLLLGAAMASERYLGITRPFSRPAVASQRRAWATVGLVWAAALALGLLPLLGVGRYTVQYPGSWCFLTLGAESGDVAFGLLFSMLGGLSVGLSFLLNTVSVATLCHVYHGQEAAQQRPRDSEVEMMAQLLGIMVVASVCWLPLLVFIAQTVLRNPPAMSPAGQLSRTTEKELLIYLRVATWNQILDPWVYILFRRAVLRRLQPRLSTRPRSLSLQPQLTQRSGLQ
The class given is functional, cell-based.

Assay [4] addresses Prostaglandin G/H synthase 1 (Homo sapiens, UniProt P23219). The class given is functional.
Assay [5] has as its target Gamma-aminobutyric acid receptor subunit alpha-1/alpha-2/beta-2/gamma-2 (Homo sapiens, UniProt P14867+P18507+P47869+P47870). Format: protein-complex assay.
Assay [6] deals with Sodium-dependent noradrenaline transporter (Homo sapiens, UniProt P23975).
Sodium-dependent noradrenaline transporter, sequence (P23975 whole entry): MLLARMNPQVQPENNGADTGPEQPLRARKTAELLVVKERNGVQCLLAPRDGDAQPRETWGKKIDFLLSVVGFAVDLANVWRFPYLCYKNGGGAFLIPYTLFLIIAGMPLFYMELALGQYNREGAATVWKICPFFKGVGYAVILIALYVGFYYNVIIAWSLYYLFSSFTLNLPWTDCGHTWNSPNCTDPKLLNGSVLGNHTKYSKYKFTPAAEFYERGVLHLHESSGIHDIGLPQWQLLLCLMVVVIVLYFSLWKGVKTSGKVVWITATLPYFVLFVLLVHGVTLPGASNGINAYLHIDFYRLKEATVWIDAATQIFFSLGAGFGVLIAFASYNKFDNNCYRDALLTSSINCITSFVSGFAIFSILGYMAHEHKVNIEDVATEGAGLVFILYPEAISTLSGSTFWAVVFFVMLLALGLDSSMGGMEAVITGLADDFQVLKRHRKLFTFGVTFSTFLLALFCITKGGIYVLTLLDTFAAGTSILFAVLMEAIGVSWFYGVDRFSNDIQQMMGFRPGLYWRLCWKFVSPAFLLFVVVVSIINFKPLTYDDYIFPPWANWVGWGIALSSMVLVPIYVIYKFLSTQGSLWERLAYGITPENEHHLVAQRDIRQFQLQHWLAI
The target in a further assay is T5, Androgen receptor (Homo sapiens, UniProt P10275).
T5 sequence (P10275 whole entry): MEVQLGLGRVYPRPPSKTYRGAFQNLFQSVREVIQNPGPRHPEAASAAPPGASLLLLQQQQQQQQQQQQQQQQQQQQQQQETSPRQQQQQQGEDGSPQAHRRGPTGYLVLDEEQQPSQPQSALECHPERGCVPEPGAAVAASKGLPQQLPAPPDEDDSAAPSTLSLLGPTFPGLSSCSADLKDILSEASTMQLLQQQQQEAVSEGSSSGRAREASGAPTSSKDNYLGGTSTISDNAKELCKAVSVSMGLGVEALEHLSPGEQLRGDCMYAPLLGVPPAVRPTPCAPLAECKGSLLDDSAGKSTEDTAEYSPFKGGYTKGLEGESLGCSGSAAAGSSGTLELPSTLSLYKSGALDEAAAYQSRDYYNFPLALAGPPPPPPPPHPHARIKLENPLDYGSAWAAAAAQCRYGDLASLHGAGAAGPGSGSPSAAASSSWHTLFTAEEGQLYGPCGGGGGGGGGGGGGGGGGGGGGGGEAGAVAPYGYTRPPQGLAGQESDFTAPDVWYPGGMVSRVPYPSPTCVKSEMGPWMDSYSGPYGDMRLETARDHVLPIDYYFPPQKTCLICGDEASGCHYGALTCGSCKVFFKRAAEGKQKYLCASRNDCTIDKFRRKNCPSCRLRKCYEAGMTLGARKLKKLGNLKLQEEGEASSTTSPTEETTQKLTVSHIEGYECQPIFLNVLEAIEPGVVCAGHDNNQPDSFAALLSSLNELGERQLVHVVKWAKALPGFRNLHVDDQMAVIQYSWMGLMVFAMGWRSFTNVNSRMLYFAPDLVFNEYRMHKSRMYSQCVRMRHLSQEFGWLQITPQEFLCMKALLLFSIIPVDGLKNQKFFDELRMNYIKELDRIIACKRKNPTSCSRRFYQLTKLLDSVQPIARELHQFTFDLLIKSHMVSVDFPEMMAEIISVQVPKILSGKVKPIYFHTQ

Bounds are passed on as bounds.

What is called AC50 is the midpoint of the concentration-response curve, whichever way the signal moves.
Also: assay procedure not described here.

Gamma-aminobutyric acid receptor subunit alpha-1/alpha-2/beta-2/gamma-2, sequence (P14867 whole entry): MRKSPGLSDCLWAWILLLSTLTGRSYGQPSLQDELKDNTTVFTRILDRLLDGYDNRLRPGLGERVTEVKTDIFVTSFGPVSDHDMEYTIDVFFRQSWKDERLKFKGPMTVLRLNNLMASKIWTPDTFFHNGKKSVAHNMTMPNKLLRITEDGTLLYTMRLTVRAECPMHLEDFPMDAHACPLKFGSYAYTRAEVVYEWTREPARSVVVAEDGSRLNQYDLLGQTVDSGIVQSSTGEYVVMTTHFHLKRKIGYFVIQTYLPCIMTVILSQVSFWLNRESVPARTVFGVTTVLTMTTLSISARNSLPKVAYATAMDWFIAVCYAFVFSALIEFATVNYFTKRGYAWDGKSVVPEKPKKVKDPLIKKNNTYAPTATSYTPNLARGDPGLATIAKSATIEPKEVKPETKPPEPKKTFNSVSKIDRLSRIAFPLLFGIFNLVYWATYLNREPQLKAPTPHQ
Gamma-aminobutyric acid receptor subunit alpha-1/alpha-2/beta-2/gamma-2, sequence (P47870 whole entry): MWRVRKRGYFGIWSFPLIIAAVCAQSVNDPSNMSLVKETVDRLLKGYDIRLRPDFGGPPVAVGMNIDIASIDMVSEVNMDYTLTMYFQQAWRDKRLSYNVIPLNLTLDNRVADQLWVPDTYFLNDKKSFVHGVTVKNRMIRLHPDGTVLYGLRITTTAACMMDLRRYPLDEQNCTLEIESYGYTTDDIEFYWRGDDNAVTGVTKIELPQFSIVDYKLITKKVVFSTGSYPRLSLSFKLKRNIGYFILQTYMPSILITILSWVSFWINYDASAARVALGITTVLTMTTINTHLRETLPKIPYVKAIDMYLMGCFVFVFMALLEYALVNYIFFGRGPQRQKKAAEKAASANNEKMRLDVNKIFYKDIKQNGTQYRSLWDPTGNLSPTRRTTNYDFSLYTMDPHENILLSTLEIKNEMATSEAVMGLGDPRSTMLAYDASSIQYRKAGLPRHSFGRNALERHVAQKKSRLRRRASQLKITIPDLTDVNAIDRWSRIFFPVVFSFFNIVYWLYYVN
Gamma-aminobutyric acid receptor subunit alpha-1/alpha-2/beta-2/gamma-2, sequence (P18507 whole entry): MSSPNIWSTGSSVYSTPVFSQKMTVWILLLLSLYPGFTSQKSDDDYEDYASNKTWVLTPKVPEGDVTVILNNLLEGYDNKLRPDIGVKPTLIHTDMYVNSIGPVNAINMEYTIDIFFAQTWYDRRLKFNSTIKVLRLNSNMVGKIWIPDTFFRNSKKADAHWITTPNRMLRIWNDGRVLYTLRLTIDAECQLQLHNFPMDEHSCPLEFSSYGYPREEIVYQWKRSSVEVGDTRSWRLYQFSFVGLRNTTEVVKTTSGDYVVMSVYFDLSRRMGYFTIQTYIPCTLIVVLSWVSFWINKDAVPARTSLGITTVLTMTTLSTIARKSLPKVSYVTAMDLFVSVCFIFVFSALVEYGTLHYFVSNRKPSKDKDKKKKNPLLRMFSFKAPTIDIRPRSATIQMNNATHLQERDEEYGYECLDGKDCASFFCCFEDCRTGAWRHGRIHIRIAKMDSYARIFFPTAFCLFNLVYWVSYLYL
Gamma-aminobutyric acid receptor subunit alpha-1/alpha-2/beta-2/gamma-2, sequence (P47869 whole entry): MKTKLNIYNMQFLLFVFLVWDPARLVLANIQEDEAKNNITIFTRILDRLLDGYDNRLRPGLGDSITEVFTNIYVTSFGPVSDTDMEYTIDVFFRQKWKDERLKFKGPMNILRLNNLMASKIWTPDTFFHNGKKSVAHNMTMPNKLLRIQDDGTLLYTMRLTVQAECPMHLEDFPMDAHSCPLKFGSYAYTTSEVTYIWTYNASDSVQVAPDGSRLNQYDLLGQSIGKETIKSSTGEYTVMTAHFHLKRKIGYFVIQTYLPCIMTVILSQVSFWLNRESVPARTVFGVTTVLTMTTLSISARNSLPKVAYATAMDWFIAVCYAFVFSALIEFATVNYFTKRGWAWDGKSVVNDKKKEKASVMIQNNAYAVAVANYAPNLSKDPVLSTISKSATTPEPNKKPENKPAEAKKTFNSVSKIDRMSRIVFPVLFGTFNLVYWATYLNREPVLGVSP
Prostaglandin G/H synthase 1, sequence (P23219 whole entry): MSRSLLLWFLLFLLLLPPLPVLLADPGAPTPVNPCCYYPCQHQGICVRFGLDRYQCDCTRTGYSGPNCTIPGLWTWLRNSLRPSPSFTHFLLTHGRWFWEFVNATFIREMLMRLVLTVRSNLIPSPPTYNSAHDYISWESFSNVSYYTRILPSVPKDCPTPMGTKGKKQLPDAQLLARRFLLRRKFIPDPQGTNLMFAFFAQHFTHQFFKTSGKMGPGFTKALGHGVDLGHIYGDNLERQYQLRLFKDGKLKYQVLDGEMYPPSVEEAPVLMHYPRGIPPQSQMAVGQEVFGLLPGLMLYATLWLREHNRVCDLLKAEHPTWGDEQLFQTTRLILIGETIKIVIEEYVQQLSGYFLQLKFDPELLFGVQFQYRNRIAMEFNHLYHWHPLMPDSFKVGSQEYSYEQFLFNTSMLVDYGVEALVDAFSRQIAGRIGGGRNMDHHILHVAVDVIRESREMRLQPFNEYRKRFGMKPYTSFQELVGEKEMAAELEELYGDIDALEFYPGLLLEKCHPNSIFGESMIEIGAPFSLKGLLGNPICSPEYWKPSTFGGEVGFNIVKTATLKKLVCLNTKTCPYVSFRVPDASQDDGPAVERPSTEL

In assay [1], `CCOC(=O)C(C)(C)Oc1ccc(Cl)cc1` [CLOFIBRATE] displayed an AC50 greater than 30 µM.
The compound `Fc1ccc([C@@H]2CCNC[C@H]2COc2ccc3c(c2)OCO3)cc1` [PAROXETINE] showed an AC50 in assay [2] of 10.6 µM.
With `O=c1c(O)c(-c2ccc(O)c(O)c2)oc2cc(O)cc(O)c12` [QUERCETIN], in assay [3], the AC50 is greater than 100 µM.
On to `CCN(CC)CCCC(C)Nc1c2ccc(Cl)cc2nc2ccc(OC)cc12` (centres undefined) [QUINACRINE], for which the AC50 at Adenosine receptor A3 is greater than 30 µM; on Thromboxane A2 receptor it was greater than 1000 nM; in assay [4] it was greater than 30 µM; in [5], greater than 30 µM; in assay [6] it was 6.92 µM; at Androgen receptor it was greater than 30 µM.
